These results are taken from patent US12145927B2 (BRISTOL-MYERS SQUIBB COMPANY, priority 2018, dated 2024).

One may read the IC50 as the concentration at which inhibition is half-maximal. Read a low IC50 as greater potency in that assay.

Assay [1] has as its target T1, indoleamine 2,3-dioxygenase (IDO) (Homo sapiens, UniProt P14902).
T1 construct: replaced with media containing IFNγ (#285-IF/CF, R&D Systems) at a final concentration of 25 ng/mL; endogenous in cells; host or cells: HeLa (ATCC CCL-2), IFNγ-stimulated
Nature of the assay: HeLa cell-based indoleamine 2,3-dioxygenase (IDO) assay (IDO1 HeLa). The conditions noted are these: HeLa cells, IFNγ 25 ng/mL, 48 hour incubation; kynurenine by absorbance at 480 nm. The method, then:
Assessment of inhibitor activity in HeLa cell-based indoleamine 2,3-dioxygenase (IDO) assay:
HeLa (ATCC® CCL-2) cells were obtained from the ATCC® and cultured in Dulbecco's Modified Eagle Medium supplemented with 4.5 g/L glucose, […] (#10-013-CV, Corning), 2 mM L-alanyl-L-glutamine dipeptide (#35050-061, Gibco), 100U/mL penicillin, 100 μg/mL streptomycin (#SV30010, HyClone) and 10% fetal bovine serum (#SH30071.03 HyClone). Cells were maintained in a humidified incubator at 37° C. in 5% CO2.
IDO activity was assessed as a function of kynurenine production as follows: HeLa cells were seeded in a 96-well culture plate at a density of 5,000 cells/well and allowed to equilibrate overnight. After 24 hours, the media was aspirated and replaced with media containing IFNγ (#285-IF/CF, R&D Systems) at a final concentration of 25 ng/mL. A serial dilution of each test compound was added to the cells in a total volume of 200 μL of culture medium. After a further 48 hour incubation, 170 μL of supernatant was transferred from each well to a fresh 96-well plate. 12.1 μL of 6.1N trichloroacetic acid (#T0699, Sigma-Aldrich) was added to each well and mixed, followed by incubation at 65° C. for 20 minutes to hydrolyze N-formylkynurenine, the product of indoleamine 2,3-dioxygenase, to kynurenine. The reaction mixture was then centrifuged for 10 mins at 500×g to sediment the precipitate. 100 μL of the supernatant was transferred from each well to a fresh 96-well plate. 100 μl of 2% (w/v) p-dimethylaminobenzaldehyde (#15647-7, Sigma-Aldrich) in acetic acid (#A6283, Sigma-Aldrich) was added to each well mixed and incubated at RT for 20 mins. Kynurenine concentrations were determined by measuring absorbance at 480 nm and calibrating against an L-kynurenine (#K8625, Sigma-Aldrich) standard curve using a SPECTRAMAX® M2e microplate reader (Molecular Devices). The percentage activity at each inhibitor concentration was determined and IC50 values assessed using nonlinear regression.

For a further assay, the target named is T2, human IDO1 (Homo sapiens, UniProt P14902).
T2 construct: expressed in transfected cells
Nature of the assay: IDO inhibition assay in human IDO1/HEK293 cells (IDO1 HEK Human). The format is cell-based. Conditions: HEK293 cells stably expressing human IDO1; 20 hours incubation; absorbance at 490 nm after Ehrlich reagent. An outline of the steps:
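Kynurenine output of stably IDO1-transfected HEK293 cells was measured by absorbance at 490 nm after mixing supernatant with 0.2% Ehrlich reagent, following TCA stop (0.2% final, 50° C., 30 min). Cells were incubated 20 hours with compound. Inhibition was scaled between DMSO and 500 nM reference standard.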

T1 sequence (P14902 whole entry): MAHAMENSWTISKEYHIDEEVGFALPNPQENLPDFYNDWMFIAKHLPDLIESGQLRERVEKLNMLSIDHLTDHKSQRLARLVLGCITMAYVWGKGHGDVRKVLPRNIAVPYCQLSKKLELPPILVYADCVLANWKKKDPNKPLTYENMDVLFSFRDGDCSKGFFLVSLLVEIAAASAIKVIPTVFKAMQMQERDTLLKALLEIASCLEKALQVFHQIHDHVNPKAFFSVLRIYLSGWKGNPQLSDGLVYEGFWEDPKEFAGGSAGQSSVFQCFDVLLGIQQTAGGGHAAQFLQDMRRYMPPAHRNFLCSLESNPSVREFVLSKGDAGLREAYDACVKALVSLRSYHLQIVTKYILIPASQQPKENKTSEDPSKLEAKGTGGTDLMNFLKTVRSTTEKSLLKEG
T2 sequence (P14902 whole entry): as above

In turn, `O=C(Nc1ccc(Br)cc1)Nc1cc(-c2ccccc2-c2nnn[nH]2)cc2c1OCC=CC2c1ccccc1` (racemic) [Example 106, (+/−)-1-(7-(2-(1H-tetrazol-5-yl)phenyl)-5-phenyl-2,5-dihydrobenzo[b]oxepin-9-yl)-3-(4-bromophenyl)urea] had an IC50 in assay [1] of 30.1 nM.

`CC1=CC(c2ccccc2)c2cc(-c3ccccc3-c3nnn[nH]3)cc(NC(=O)Nc3ccc(C)cc3)c2OC1` (racemic) [Example 92, (+/−)-1-(7-(2-(1H-tetrazol-5-yl)phenyl)-3-methyl-5-phenyl-2,5-dihydrobenzo[b]oxepin-9-yl)-3-(p-tolyl)urea] yielded a concentration for half-maximal inhibition (IC50) in assay [1] of 7.2 nM.

Regarding `Cc1ccc(NC(=O)Nc2cc(-c3ccccc3-c3nnn[nH]3)cc3c2OCCCC3C2CC2)cc1` (single isomer, unassigned) [36 (En. 2), 1-(7-(2-(1H-tetrazol-5-yl)phenyl)-5-cyclopropyl-2,3,4,5-tetrahydrobenzo[b]oxepin-9-yl)-3-(p-tolyl)urea], the figures for the concentration for half-maximal inhibition (IC50) (on human IDO1; in assay [1]) were 2.4 nM and 3.6 nM, respectively.

Turning to `Cc1ccc(NC(=O)Nc2cc(-c3ccccc3-c3nn[nH]n3)cc3c2OCC=CC3c2ccccc2)cc1` (racemic) [Example 87, (+/−)-1-(7-(2-(1H-tetrazol-5-yl)phenyl)-5-phenyl-2,5-dihydrobenzo[b]oxepin-9-yl)-3-(p-tolyl)urea], in assay [1], the IC50 amounted to 10.9 nM.

Turning to `Cc1ccc(NC(=O)Nc2cc(-c3ccccc3-c3nnn[nH]3)cc3c2OCCCC3C2CC2)cc1` (single isomer, unassigned) [36 (En. 1), 1-(7-(2-(1H-tetrazol-5-yl)phenyl)-5-cyclopropyl-2,3,4,5-tetrahydrobenzo[b]oxepin-9-yl)-3-(p-tolyl)urea], the IC50 on human IDO1 came to 10.4 nM; in assay [1], 14.9 nM.

As to `Cc1ccc(NC(=O)Nc2cc(-c3ccccc3-c3nnn[nH]3)cc3c2OCCCC3C(C)C)cc1` (single isomer, unassigned) [24 (En. 2), 1-(7-(2-(1H-tetrazol-5-yl)phenyl)-5-isopropyl-2,3,4,5-tetrahydrobenzo[b]oxepin-9-yl)-3-(p-tolyl)urea], the results for the IC50 (on human IDO1; in assay [1]) were 6.3 nM and 161 nM, respectively.

In turn, `Fc1cc(Nc2cc(-c3ccccc3-c3nnn[nH]3)cc3c2OCCCC3c2ccccc2)ccc1Cl` (single isomer, unassigned) [Example 72, 7-(2-(1H-tetrazol-5-yl)phenyl)-N-(4-chloro-3-fluorophenyl)-5-phenyl-2,3,4,5-tetrahydrobenzo[b]oxepin-9-amine] registered an IC50 in assay [1] of 24.2 nM.

For the compound `Cc1ccc(-c2nnn[nH]2)c(-c2cc(Nc3ccc4nc(C)sc4c3)c3c(c2)C(c2ccccc2)CCCO3)c1` (single isomer, unassigned) [Example 74, 2-methyl-N-(7-(5-methyl-2-(1H-tetrazol-5-yl)phenyl)-5-phenyl-2,3,4,5-tetrahydrobenzo[b]oxepin-9-yl)benzo[d]thiazol-6-amine], the IC50 came out at 7.7 nM at human IDO1 and 5.1 nM in assay [1].

With `Cc1ccc(NC(=O)Nc2cc(-c3ccccc3-c3nnn[nH]3)cc3c2OCC(F)(F)CC3c2ccccc2)cc1` (racemic) [Example 110, (+/−) 1-(7-(2-(1H-tetrazol-5-yl)phenyl)-3,3-difluoro-5-phenyl-2,3,4,5-tetrahydrobenzo[b]oxepin-9-yl)-3-(p-tolyl)urea], the IC50 at human IDO1 stood at 50.2 nM; in assay [1], 24.7 nM.

Compound `CCc1ccc(NC(=O)Nc2cc(-c3ccccc3-c3nnn[nH]3)cc3c2OCC=CC3CCC(F)(F)F)cc1` (racemic) [Example 107, (+/−)-1-(7-(2-(1H-tetrazol-5-yl)phenyl)-5-(3,3,3-trifluoropropyl)-2,5-dihydrobenzo[b]oxepin-9-yl)-3-(4-ethylphenyl)urea] came in with an IC50 in assay [1] of 14.5 nM.

For `O=C(Nc1ccc(Cl)cc1F)Nc1cc(-c2ccccc2-c2nnn[nH]2)cc2c1OCC=CC2c1ccccc1` (racemic) [Example 105, (+/−)-1-(7-(2-(1H-tetrazol-5-yl)phenyl)-5-phenyl-2,5-dihydrobenzo[b]oxepin-9-yl)-3-(4-chloro-2-fluorophenyl)urea], half-maximal inhibition in assay [1] (IC50) required 54.7 nM.

In assay [1], `Cc1ccc(NC(=O)Nc2cc(-c3cc(F)ccc3C(=O)O)cc3c2OCCCC3c2ccccc2)cc1` (racemic) [Example 108, (+/−)-4-fluoro-2-(5-phenyl-9-(3-(p-tolyl)ureido)-2,3,4,5-tetrahydrobenzo[b]oxepin-7-yl)benzoic acid] gave an IC50 of 164 nM.

Take `Cc1ccc(NC(=O)Nc2cc(-c3ccccc3-c3nn[nH]n3)cc3c2OCCCC3c2ccccc2)cc1` (centres unmarked) [Example 1, 1-(7-(2-(1H-tetrazol-5-yl)phenyl)-5-phenyl-2,3,4,5-tetrahydrobenzo[b]oxepin-9-yl)-3-(p-tolyl)urea]: the IC50 stood at 18.7 nM on human IDO1 and 13.9 nM in assay [1].

In the case of `Cc1ccc(NC(=O)Nc2cc(-c3ccccc3-c3noc(=O)[nH]3)cc3c2OCCCC3c2ccccc2)cc1` (single isomer, unassigned) [Example 67, 1-(7-(2-(5-oxo-4,5-dihydro-1,2,4-oxadiazol-3-yl)phenyl)-5-phenyl-2,3,4,5-tetrahydrobenzo[b]oxepin-9-yl)-3-(p-tolyl)urea], the values for the IC50 (against human IDO1; in assay [1]) were 1.1 nM and 1 nM, respectively.

For the compound `Cc1ccc(NC(=O)Nc2cc(-c3ccccc3-c3nnn[nH]3)cc3c2OCCCC3C(C)C)cc1` (single isomer, unassigned) [24 (En. 1), 1-(7-(2-(1H-tetrazol-5-yl)phenyl)-5-isopropyl-2,3,4,5-tetrahydrobenzo[b]oxepin-9-yl)-3-(p-tolyl)urea], the results for the IC50 (on human IDO1; in assay [1]) were 0.98 nM and 28.9 nM, respectively.

For `Cc1ccc(NC(=O)Nc2cc(-c3ccccc3-c3nnn[nH]3)cc3c2OC[C@@H](C)C[C@H]3c2ccccc2)cc1` (racemic) [Example 109, (+/−)-1-((cis)-7-(2-(1H-tetrazol-5-yl)phenyl)-3-methyl-5-phenyl-2,3,4,5-tetrahydrobenzo[b]oxepin-9-yl)-3-(p-tolyl)urea], the IC50 in assay [1] stood at 5.9 nM.

In the case of `COCC(CC(=O)O)c1cc(Nc2ccc(C#N)cc2)c2c(c1)C(C1CC1)CCCO2` (single isomer, unassigned) [131 (dia. 2), 3-(9-(4-Cyanophenylamino)-5-cyclopropyl-2,3,4,5-tetrahydrobenzo[b]oxepin-7-yl)-4-methoxybutanoic acid], the IC50 at human IDO1 was 2 nM; in assay [1], 2.1 nM.
